# Source: article PMC12195660, “Preparation and Evaluation of an Oral Administration System of Albendazole-Metal-Organic Framework Based on Dual Response to pH and Enzymes” (Pharmaceuticals, 2025)
# Assay: In vivo pharmacokinetic study after intragastric administration in rats
# Settings: both sexes, Wistar, rat, po, 25 mg·kg^−1 of ABZ
# Protocol: Eighteen Wistar rats were selected and divided into three groups, with half of them being male and the other half being female. Each group was given a dose of 25 mg·kg^−1 of ABZ by intragastric administration. Blood samples of 200–500 μL were collected from each rat at 0.5, 1, 2, 4, 6, 8, 10, 12, and 24 h after administration and were placed into pre-prepared anticoagulant centrifuge tubes. The samples were centrifuged at 13,000 rpm for 10 min, and the upper plasma was collected and stored at −80 °C in an ultra-low temperature refrigerator.
# For sample preparation, plasma was thawed, and 50 μL of plasma was mixed with 150 μL of methanol. The mixture was vortexed for 1 min and then centrifuged at 13,000 rpm for 10 min. The supernatant (135 μL) was collected, followed by the addition of 200 ng·mL^−1 mebendazole as the internal standard. The sample was vortexed for 1 min and then filtered through a microporous membrane. The drug content was quantified using UHPLC-MS/MS (UltiMate 3000 and Q-Exactive Orbitrap MS, Thermo Scientific, USA). Pharmacokinetic parameters were calculated using DAS 2.0 software.
# Chromatographic conditions: An Accucore aQ UHPLC column (150 mm × 2.1 mm × 2.5 μm) was used. The column temperature was maintained at 40 ± 1 °C, and the sample tray was kept at 15 ± 0.5 °C. The mobile phase consisted of acetonitrile (A) and water with 0.1% formic acid (B). The elution gradient was as follows: 0–5 min, 95% B. The injection volume was 1 μL, and the flow rate was set to 0.3 mL·min^−1.
# Mass spectrometry conditions: Electrospray ionization (ESI) was used with high-purity nitrogen (purity > 99.9%) as the carrier gas. The sheath gas flow rate was 35 Arb, and the auxiliary gas flow rate was 10 Arb. The capillary temperature was set to 320 °C, with the ion lens (S-lens RF level) voltage frequency at 60. The spray voltage was 3.0 kV (positive mode), and full MS positive switching scanning mode was employed, with a scanning range of 150–800.
smiles,measurement,setting,value
"CCCSc1ccc2nc(NC(=O)OC)[nH]c2c1 [ABZ, albendazole]",half-life,"in vivo, n = 6",2 ± 0.38 h
same,AUC(0-inf),"plasma, n = 6",220 ± 25.3 ng·h/mL
same,AUC(0-t),"plasma, n = 6",216 ± 27.6 ng·h/mL
same,Cmax,"plasma, n = 6",34.1 ± 5.19 ng/mL
same,Tmax,"plasma, n = 6",2 ± 0.38 h
same,MRT last,"plasma, n = 6, read-out: MRT0–t",6.16 ± 0.36 h
same,MRT inf,"plasma, n = 6, read-out: MRT0–∞",6.55 ± 0.37 h
